The text below walks through data of patent US8440617B2, “Hyperbaric treatment in wound healing” (The Trustees of the University of Pennsylvania, priority 2007, dated 2013).

Entries after “also recorded” stand apart in the source; their conditions may differ.

One series deals with ischemic hindlimb wounds. The series can be described thus: Hindlimb ischemia (femoral ligation/excision): perfusion, wound BMD EPC and wound healing with daily HBO2. In kind it is in vivo, mouse. To be noted: 40 mg/kg i.p. On the procedure:
In addition, it was observed that HBO2 daily treatments (2.4ATA 100% O2 for 90 min) improved hindlimb perfusion by Laser Doppler Imaging (LDF) after femoral ligation/excision (FIG. 6) and increased the bone marrow-derived (BMD) EPC within the incisional wounds, 3 d post-wounding (with 4 HBO2 treatments) (FIG. 7). By day 8 after wounding, ischemic excisional punch biopsy wounds treated daily with HBO2 healed faster (FIG. 8). […] Each day animals were harvested, and blood (retro-orbital bleeding) and bone marrow (flushing of tibias and femurs) collected (3 mice for each time point had bone marrow collected and 5 mice for each time point had blood collected). VEGFR-2 (kdr) mRNA was semi-quantitated by RT PCR.

The test system of series [1] is EPC (cells co-expressing CD34 and Sca-1). The series can be described thus: EPC mobilization (CD34+/Sca-1+ cells in peripheral blood) in mice exposed to HBO2. Format: in vivo, mouse. To be noted: wild-type mice, 40 mg/kg i.p. 2 hours prior to pressurization. The procedure:
In the initial studies searching for the mechanisms for EPC mobilization with HBO2 EPC (assessed as cells that co-expressed CD34 and stem cell antigen-1 (Sca-1)) were also evaluated in peripheral blood of mice. […] In preliminary studies, mice were exposed to HBO2 for 90 minutes at up to 2.8 ATA and also to a pressure control, 2.8 ATA pressure using a gas containing 7.5% O2 (so that O2 partial pressure was the same as ambient air, 0.21 ATA O2). In select studies, mice were pre-treated with intraperitoneal L-nitroarginine methyl ester (L-NAME, to inhibit nitric oxide synthase [NOS]), 40 mg/kg i.p. administered 2 hours prior to pressurization). In anesthetized mice, blood was obtained by aortic puncture and bone marrow was harvested by clipping the ends off a tibia and flushing the marrow cavity with 1 ml PBS. Exposure to 2.8 ATA O2 (but not 100% O2 at ambient pressure or 2.8 ATA pressure at a total O2 partial pressure of only 0.21 ATA O2) increased EPC mobilization immediately after treatment, as well as 16 hrs post-treatment, and with repeated treatments (FIG. 4).
There is precedence for rapid mobilization of stem cells from bone marrow, but most emigration is believed to occur after a period of cell proliferation within the marrow niche.

For series [2], the system named is NO synthesis in bone marrow (NOS). The series can be described thus: Real-time bone marrow NO measurement with NO microelectrode during HBO. Format: in vivo, mouse. The procedure:
(§1) For HBO treatment, mice were placed in an animal hyperbaric chamber (Reneau Corp.) and subjected to 100% oxygen at 2.4 atmospheres absolute (ATA) for 90 min (Davis Wound Healing Protocol). To measure continuous, real-time BM NO levels, NO microelectrodes was inserted into the femoral marrow cavity as previously described. An osteotomy was created on the patellar surface of the murine femur using a 25 G beveled needle, allowing the electrode to be lowered into the marrow space when the animal was placed in the hyperbaric chamber. In some mice, pretreatment with L-NAME (40 mg/kg i.p.) (Sigma-Aldrich) was given 2 h prior to exposure to HBO.
In early studies, it was hypothesized that HBO2 augments stem cell mobilization because it stimulates •NO synthesis in the bone marrow, as •NO is known to play a central role with stem cell release from bone marrow. […] Mice were placed in a hyperbaric chamber where, while breathing air, baseline measurements were obtained. The chamber was then flushed with 100% O2 and compressed to 2.4 ATA O2.
Physiologically, the NO-mediated EPC release into circulation occurs in response to tissue-level hypoxia, although this compensatory response is inadequate in the setting of diabetes and results in severe defects in neovascularization and wound healing. […] Therefore, it was sought to utilize HBO as a tool to augment EPC release into circulation and further study both EPC mobilization and wound-homing mechanisms in the presence of diabetes. The goal was to determine whether hyperoxia stimulates NO production in the BM of diabetic mice via a NOS-mediated pathway and whether this pathway is impaired in diabetes. To test this hypothesis, Nafion polymer—coated NO microsensors were inserted into the femur BM space of both STZ induced diabetic and nondiabetic mice to measure real-time NO levels within the BM prior to and is during HBO-induced hyperoxia. […] It was speculated, that this was likely due to a compensatory effect from other NOS isoforms, and therefore the level of both iNOS and nNOS was examined in diabetic mice. […] However, no observation was made of any changes in the phosphorylation of these NOS isoforms.

A further series relates to stem cell factor (SCF). The series can be described thus: Plasma stem cell factor by Quantikine M immunoassay in mice (Table I). To be noted: for Plasma SCF if mice pre-treated with L-NAME: L-NAME pre-treatment. Format: in vivo, mouse.
The subject of series [3] is circulating EPCs (CXCR4+/VEGFR2+, Tie2+/VEGFR2+). Description: Circulating EPCs by flow cytometry in STZ-diabetic mice. In kind it is in vivo, mouse. On the procedure: (§2) Tie2-GFP, wild-type or chimeric FVB mice at 6-12 wk of age were treated with STZ (Sigma-Aldrich) to induce diabetes. Mice were rendered diabetic by i.p. administration of 60 mg/kg STZ in 50 mM sodium citrate, pH 4.5, daily for 5 d. Control mice were treated with daily injections of citrate buffer. Serum glucose was measured from the mouse tail vein using a glucometer. Once serum glucose reached 250 mg/dL, mice were followed with daily measurements for 1 wk prior to use in experiments. Serum glucose levels in STZ mice averaged 461 mg/dL with a range of 372-520 mg/dL, while control mice serum glucose mean level was 120 mg/dL with a range of 94-135 mg/dL. Wounds were induced on the ventral surface of the mouse thigh using a 4 mm punch biopsy. Full-thickness skin was removed, exposing the underlying muscle.
as §1
Mobilization of EPCs into circulation was studied using flow cytometry as previously described. Cells isolated from mice were incubated with various Abs (BD Biosciences). Isotype matched mouse immunoglobulins served as controls. One million viable cells were analyzed per sample using an LSR2 multicolor flow cytometer (BD Biosciences). Data was analyzed using FlowJo software (Treestar, Inc.).
Physiologically, increased levels of BM NO result in activation of MMP-9 and conversion of kit ligand to its soluble form, ultimately generating EPC release into circulation. To study the effects of the hyperoxia-induced rise in NO levels in the marrow cavity on mobilization of EPCs into circulation, peripheral blood from diabetic mice was analyzed for EPCs using flow cytometry. A determination of whether hyperoxia, induced by HBO, increases the number of circulating EPCs in the peripheral blood of diabetic mice was made. Specifically, peripheral blood of diabetic mice was examined 18 h after a single HBO treatment. After excluding dead DAPI^+labeled cells, candidate lymphocytes, identified by their typical appearance on forward and side scatter, were gated and CD45^+/CD3^+cell populations were excluded. […] Therefore, several marker combinations were used to quantitate circulating EPCs. […]

Series [4] can be described thus: Induction of diabetes with STZ, serum glucose by glucometer. To be noted: 60 mg/kg i.p. daily for 5 d. In kind it is in vivo, mouse. The procedure: as §2
A further series has as its system wound granulation tissue. Description: Histochemistry of diabetic wound tissue (VEGFR2 vessel density, H&E, trichrome collagen). Format: in vivo, mouse. To be noted: diabetic wounds at d 6, FIG. 17D-E. The source says: (§3) For immunostaining, paraffin embedded serial sections (5 μm) were first underwent standard deparaffinizing and rehydration procedures and then probed with various Abs. To assess wound SDF-1α^+ cells, sections were double-stained with HTC-conjugated anti-SDF-1α and PE-conjugated different tissue-specific Abs (eBiosciences). To detect blood vessels in wound, sections were stained with HTC-conjugated anti-VEGFR2Ab. For examination of wound EPC recruitment in BM transplantation experiment, sections were double-stained with FITC-GFP and PE-VEGFR2 (BD Biosciences). Nuclei were counterstained with Hoescht dye. Masson's trichrome staining and H&E staining were performed using standard method and all reagents were from Sigma-Aldrich. Tissue sections were analyzed using fluorescence microscopy and ImageJ (NIH) software to quantitate fluorescent intensity. In trichrome stained slides, blue stain (collagen content) was also quantitatively analyzed by ImageJ.
EPCs play a key role in vasculogenesis and cutaneous tissue repair. It was hypothesized that increased numbers of EPCs in circulation, along with enhanced EPC homing to wounds, results in improved wound healing in diabetes. Diabetic wound closure rates were studied, in response to treatment with HBO and SDF-1α alone and in combination. Wounded diabetic mice underwent daily wound injections with SDF-1α, PBS, HBO, or SDF-1α+HBO treatments. […]

In series [5] the test system is diabetic cutaneous wounds. Description: Peripheral wound healing (wound closure) in diabetic mice. Format: in vivo, mouse. To be noted: diabetic mice, 6 d post-wounding, FIG. 17A. The procedure:
as §2
Initial wound surface area was recorded and wounds were then followed serially with daily digital photographs using an Olympus digital camera. Photographs contained an internal scale to allow for standard calibration of measurements. Wound area was quantified using ImageJ software. Wound area was expressed as the percentage of original wound size. Wounds were followed for 6 d and mice were sacrificed at the conclusion of the experiment.
EPCs play a key role in vasculogenesis and cutaneous tissue repair. It was hypothesized that increased numbers of EPCs in circulation, along with enhanced EPC homing to wounds, results in improved wound healing in diabetes. Diabetic wound closure rates were studied, in response to treatment with HBO and SDF-1α alone and in combination. Wounded diabetic mice underwent daily wound injections with SDF-1α, PBS, HBO, or SDF-1α+HBO treatments. […] This healing response was greater than the response to either treatment modality alone. In addition, histochemical analysis was conducted to examine blood vessel density (VEGFR2 staining), cellularity and stromagenesis (H&E staining), and extracellular constitution (trichrome staining) in wound tissues. […]

Another series concerns SDF-1α in wound tissue. The series can be described thus: Wound SDF-1α level (immunostaining). To be noted: after SDF-1α injection, compared to nondiabetic wound. In kind it is in vivo, mouse.
Source text: as §3

Series [6] can be described thus: Mouse serum SDF-1α ELISA after wound injection. Format: in vivo. To be noted: 2 h following wound injection of SDF-1α. The procedure: Mouse serum SDF-1α concentration was measured by Quantikine® mouse SDF-1α ELISA kit (R&D Systems) based on manufacturer's protocol.
Background: In an ELISA, binding on a coated surface is turned into a signal by an enzyme label.

Series [7] concerns wound EPCs (GFP+/VEGFR2+). The series can be described thus: EPC homing to wounds in diabetic GFP bone marrow chimeric mice. Format: in vivo, mouse. On the procedure:
All procedures were done with approval from the University of Pennsylvania Institutional Animal Care and Use Committee (IACUC). 6-12 wk-old FVB wild-type mice (FVB/NJ), GFP (FVB/Tg) and Tie2-GFP (Tg(TIE2GFP)87 Sato/J) were purchased from The Jackson Laboratory. For all surgical procedures, mice were anesthetized with an i.p. injection of 80 mg/kg of ketamine (Phoenix Scientific, Inc.) and 20 mg/kg xylazine (Vedco Inc.). For BM transplantation experiments, 1×10^7 BM cells from GFP mice were transplanted to γ-irradiated (900 Rad) FVB wild type mouse via tail vein. […] For local wound SDF-1α injection, SDF-1α protein (R&D Systems) was reconstituted in PBS and injected into the wound base (25 μg/Kg).
as §3, with “For examination of wound EPC recruitment in BM transplantation experiment, sections were double-stained with FITC-GFP and PE-VEGFR2 (BD Biosciences). Nuclei were counterstained with Hoescht dye. Masson's trichrome staining and H&E staining were performed using standard method and all reagents were from Sigma-Aldrich.” left out, “ImageJ. […]” for “ImageJ.”

On to `COC(=O)[C@@H](N)CCCNC(=N)N[N+](=O)[O-]` [L-NAME, L-nitroarginine methyl ester], for which the “HBO2 wound healing improvements with L-NAME prior to HBO2” value in the series with ischemic hindlimb wounds is reported as “not observed”. In addition, the “EPC mobilization with L-NAME injected before HBO2” value in [1] is reported as “did not occur”. In addition, the “NO signal in bone marrow with L-NAME pre-treatment” value in series [2] (40 mg/kg ip before 2.4 ATA O2) is given as “no •NO signal was detected”. In addition, the “hyperoxia-induced increases in BM NO production after pretreatment” value in series [2] (diabetic and nondiabetic mice) is recorded as “completely inhibited; also recorded: Complete inhibition”. Besides, the “Plasma SCF if mice pre-treated with L-NAME” value in the series with stem cell factor (SCF) (air-breathing (control) mice) stood at 39.4 ± 1.9 pg/mL; in the series with stem cell factor (SCF) (then 2.8 ATA O2, 16 hours after), 42.4 ± 2.5 pg/mL. The “HBO2-induced SCF elevation with L-NAME” value in the series on stem cell factor (SCF) (mouse, in vivo) is “blocked”. Further, the “EPC mobilization following HBO in L-NAME pre-treated animals” value in [3] (mouse, in vivo) is “No increase; also recorded: inhibited”.

In the case of `CN(N=O)C(=O)N[C@@H](C=O)[C@@H](O)[C@H](O)[C@H](O)CO` [STZ, streptozocin], in series [4], the “Serum glucose, average” value is listed as 461 mg/dL and the “Serum glucose, range” value is 372 to 520 mg/dL.

Consider SDF-1α, for which, in the series on wound granulation tissue, the “collagen deposit and vessel density” value was “significant increase”. Further, the “wound healing rates compared with PBS treated controls” value in series [5] is “statistically improved”. In addition, the “local SDF-1α level in diabetic wound” value with SDF-1α in wound tissue is reported as “dramatically increased”. The “systemic (peripheral blood) SDF-1α concentration” value in series [6] is reported as “increased”. In series [7] (diabetic chimeric mice, 3 d of treatment, vs untreated diabetic mice), the “increase in wound-level EPCs (GFP+/VEGFR2+)” value was 3 fold. Further, in [7] (diabetic mice), the “EPCs recruited/homing to wound tissue” value was “significant increase”. In addition, in [3] (wounded diabetic mice, 48 h post-wounding, FIG. 15A), the “circulating EPCs versus other groups / PBS” value is reported as “statistically significant increase”. In series [3] (wounded diabetic mice, daily treatment, 48 h post-wounding), the “increase in circulating EPCs (CXCR4+/VEGFR2+)” value amounted to 2 fold.
